According to the supplement of paper PMC8253809:

Columns and labels:
DIPGX29 [1] = H3.3 K27M diffuse intrinsic pontine glioma line; assay: maximal growth inhibition (yFin) relative to DMSO / staurosporine; higher = more efficacious
Summary of the method: (§1)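 Compounds were delivered by pin tool as a 10-point threefold dilution series with a mean top concentration of 35 μM, in triplicate, to patient-derived pHGG/DIPG cell lines and astrocyte controls growing on 1% Geltrex-coated 384-well plates. Incubation lasted 7 days, or 3 days for iAstro, at 37 °C with 5% CO2. EC50 and maximal response (yFin) come from the three- or four-parameter log-logistic fit with the lowest AICc, applied to pooled, log2-transformed CellTiter-Glo luminescence normalised per plate to % activity between solvent (negative) and positive control wells.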

HGGX39 [2] = paediatric high-grade glioma line; assay: as above
Summary of the method: as §1

DIPGX37 [3] = H3.3 K27M diffuse intrinsic pontine glioma line; assay: as above
Summary of the method: as §1

HGGX6 [4] = H3.3 G34R paediatric high-grade glioma line; assay: as above
Summary of the method: as §1

DIPGX29 [5] = assay: EC50 (inflection of fitted growth-inhibition curve) (log10 M)
Summary of the method: as §1

HGGX39 [6] = assay: as above
Summary of the method: as §1

DIPGX37 [7] = assay: as above
Summary of the method: as §1

HGGX6 [8] = assay: as above
Summary of the method: as §1

DIPGX29 [9] = assay: area under dose-response curve of % growth inhibition (log2 RLU vs DMSO / staurosporine), 1e-11 to 1e-4 M (% x log10 M); higher = more growth inhibition
Summary of the method: (§2)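 Area under the curve was derived with the trapezoid rule from a fitted log-logistic curve, switching to a smoothing spline if the sigmoid fit failed. It rested on per-plate % activity between solvent and positive controls, calculated from log2-transformed CellTiter-Glo luminescence after 7 days of exposure (3 days for iAstro) at 37 °C, 5% CO2. Patient-derived pHGG/DIPG lines and astrocytes on 1% Geltrex-coated 384-well plates received a 10-point threefold dilution series, mean top concentration 35 μM, in triplicate.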

HGGX39 [10] = assay: as above
Summary of the method: as §2

DIPGX37 [11] = assay: as above
Summary of the method: as §2

HGGX6 [12] = assay: as above
Summary of the method: as §2

| SMILES | maximal growth inhibition (DIPGX29 [1]) | maximal growth inhibition (HGGX39 [2]) | maximal growth inhibition (DIPGX37 [3]) | maximal growth inhibition (HGGX6 [4]) | EC50 (log10 M) (DIPGX29 [5]) | EC50 (log10 M) (HGGX39 [6]) | EC50 (log10 M) (DIPGX37 [7]) | EC50 (log10 M) (HGGX6 [8]) | area under dose-response curve (DIPGX29 [9]) | area under dose-response curve (HGGX39 [10]) | area under dose-response curve (DIPGX37 [11]) | area under dose-response curve (HGGX6 [12]) |
| --- | --- | --- | --- | --- | --- | --- | --- | --- | --- | --- | --- | --- |
| CCCCOc1ccc(C(=O)CCN2CCCCC2)cc1 [DYCLONINE] | 87.1% | 98.8% | 95.1% | 87.9% | -4.83 | -5.12 | -5.35 | -5.02 | 92.7 | 110 | 129 | 89.2 |
| CCN(CC)CCCC(C)Nc1c2ccc(Cl)cc2nc2ccc(OC)cc12 (stereo not drawn) [QUINACRINE] | 74.8% | 74.3% | 72.4% | 74.3% | -4.79 | -4.75 | -4.78 | -4.97 | 79.9 | 55.7 | 56 | 73.7 |
| Cc1nc(-c2cn3c(n2)-c2ccc(-c4cnn(C(C)(C)C(N)=O)c4)cc2OCC3)n(C(C)C)n1 [TASELISIB] | 63.3% | 47.5% | 56.7% | 38.8% | -5.8 | -5.49 | -6.36 | -6.13 | 122 | 74.8 | 138 | 86 |
| Clc1ccc(CSC(Cn2ccnc2)c2ccc(Cl)cc2Cl)cc1 (stereo not drawn) [SULCONAZOLE] | 45.9% | 34.1% | 61.3% | 44.1% | -4.86 | -4.87 | -4.68 | -4.87 | 48.2 | 39.2 | 41.8 | 44.2 |
| C=CC(=O)N1CCC[C@@H](n2nc(-c3ccc(Oc4ccccc4)cc3)c3c(N)ncnc32)C1 [IBRUTINIB] | 29.8% | 53.1% | 41.2% | 35.5% | -5 | -4.94 | -4.96 | -5.01 | 49.8 | 50.1 | 53.7 | 35.8 |
| O=C(CCCCCCNC(=O)c1cnc(N(c2ccccc2)c2ccccc2)nc1)NO [ROCILINOSTAT] | 62.1% | 26.8% | 39.7% | 39.1% | -4.94 | -4.96 | -4.87 | -4.9 | 63.1 | 25.7 | 60.5 | 49.1 |
| O=C1COc2c(CCNCCN(C(=O)CCNCCc3ccc(Cl)c(Cl)c3)C3CCCCC3)ccc(O)c2N1 [AZ505] | 82.3% | 61.1% | 60.3% | 74.2% | -4.86 | -4.82 | -4.56 | -4.83 | 70.9 | 49.1 | 33.8 | 61.6 |
| CCCCCCCCOc1ccccc1C(=O)Nc1ccc(C(=O)OCC[N+](C)(CC)CC)cc1 [OTILONIUM] | 22.4% | 77.5% | 26.4% | 69.5% | -4.75 | -4.96 | -4.86 | -4.88 | 16.8 | 74.2 | 22.7 | 61.2 |
| COc1c(C)c2c(c(O)c1C/C=C(\C)CCC(=O)OCCN1CCOCC1)C(=O)OC2 [MYCOPHENOLATE MOFETIL] | 24.8% | 24.4% | 30.5% | 20% | -5.33 | -5.61 | -5.33 | -5.49 | 36.4 | 39.6 | 41.2 | 30.4 |
| [O-][n+]1ccccc1[S-].[O-][n+]1ccccc1[S-].[Zn+2] [PYRITHIONE ZINC] | 82.5% | 83.5% | 93.1% | 75.7% | -5.6 | -5.61 | -5.23 | -5.55 | 130 | 135 | 112 | 116 |
| Nc1c2ccccc2nc2ccccc12 [9-AMINOACRIDINE] | 71% | 89.5% | 85.8% | 80.2% | -4.84 | -4.83 | -4.83 | -4.82 | 59.1 | 74 | 70.3 | 65.1 |
| CN(C)C(=O)C(CCN1CCC(O)(c2ccc(Cl)cc2)CC1)(c1ccccc1)c1ccccc1 [LOPERAMIDE] | 81.5% | 80.5% | 93.9% | 79.2% | -4.79 | -4.75 | -4.74 | -4.74 | 75.5 | 60.8 | 84 | 58.7 |
| Cc1c(CN2CCC(Nc3ncnc4sc(CC(F)(F)F)cc34)CC2)ccc2c1cc(C#N)n2Cc1cn[nH]c1 [MI-503] | 74% | 74.2% | 72.1% | 71.9% | -4.9 | -5.14 | -4.98 | -4.9 | 92.6 | 84.8 | 70.7 | 83.9 |
| CC(C)OC(=O)C(C(=O)OC(C)C)=C1SC=CS1 [MALOTILATE] | 35.2% | 83.7% | 57.4% | 34.8% | -4.88 | -4.94 | -4.89 | -4.94 | 30.3 | 88.2 | 50.9 | 32.7 |
